Measured values: patent US5344841A, “Bis-(hydroxylakylamino)-anthraquinone inhibitors of protein kinase C” (Sphinx Pharmaceuticals Corporation, priority 1992, dated 1994)
pIC50: −log10 of the molar value.

Tests used:
[1] = system: MCF-7 human breast tumor cell line; experiment: Human tumor growth inhibition, 3H-thymidine incorporation, MCF-7; assay type: cell-based; settings: 3H-thymidine uptake; read-out: IC50 MCF-7
Text: (§1) MCF-7 a human breast tumor cell line, and MCF-7/ADR an adriamycin resistant line of MCF-7 cells were obtained from the National Cancer Institute, Frederick, Md. NHEK a human keratinocyte cell line was obtained from Clonetic Corp., San Diego, Calif. 8226 a human myeloma cell line, 8226/MT a Mitoxantrone resistant line of 8226 cells, and 8226 ADR an adriamycin resistant line of 8226 cells were obtained from Dr. Bill Dalton, Arizona Cancer Center, Tuscon, Ariz.
(§2) Human tumor cells are trypsinized (0.05% trypsin, GIBCO), counted with a hemacytometer and seeded at a concentration of 10,000 cells/well in a 96 well microtiter plate. After allowing cells to attach to the surface overnight, the culture medium is aspirated and replaced with 100 μl of fresh medium. Test agents are diluted to determine dose response at 2× final concentration and added in quadruplicate at 100 μl/well to bring the total volume of each well to 200 μl. The microtiter plate is then incubated at 37° C. 5% CO2 overnight (18-24 hrs) before ^3 H-thymidine is added at a concentration of 0.5 μCi/well in 50 μl culture medium. The plate is incubated again for 4 hrs under the same conditions as above. Supernatant is then aspirated and 50 μl trypsin (0.05%, GIBCO) is added to each well. Cells are checked microscopically to determine detachment from surfaces, and plates are then harvested with a cell harvester (PHD, Cambridge Technology, Inc.) Filter papers corresponding to wells are placed in scintillation vials and counted to determine the amount of ^3 H-thymidine incorporated by the cells. Test agent response is compared to a positive control of cell wells with culture media only to determine the IC50. IC50 is the concentration of test compound required to inhibit fifty percent of the incorporation of ^3 H-thymidine into proliferating cells not exposed to test agent. Uptake of ^3 H-thymidine is a standard test for measuring the metabolism of cells. Cells which are actively proliferating take up ^3 H-thymidine, whereas cells that are not proliferating take up ^3 H-thymidine at much slower rates or not at all. Test agents that inhibit the uptake of ^3 H-thymidine thus slow the growth of cells.

[2] = system: MCF-7/ADR adriamycin resistant line of MCF-7 cells; experiment: Human tumor growth inhibition, 3H-thymidine incorporation, MCF-7/ADR; assay type: cell-based; settings: MCF-7/ADR vs MCF-7
Text: as §1, §2

[3] = system: 8226 human myeloma cell line; experiment: Human tumor growth inhibition, 3H-thymidine incorporation, 8226; assay type: cell-based; settings: 3H-thymidine uptake, read-out: IC50 8226
Text: as §1, §2

[4] = system: 8226/ADR adriamycin resistant line of 8226 cells; experiment: Human tumor growth inhibition, 3H-thymidine incorporation, 8226/ADR; assay type: cell-based; settings: 8226/ADR vs 8226
Text: as §1, §2

NHEK human keratinocytes = experiment: Human keratinocyte inhibition, 3H-thymidine incorporation; assay type: cell-based
Protocol: Human tumor cells are trypsinized (0.05% trypsin, GIBCO), counted with a hemacytometer and seeded at a concentration of 10,000 cells/well in a 96 well microtiter plate. After allowing cells to attach to the surface overnight, the culture medium is aspirated and replaced with 100 μl of fresh medium. Test agents are diluted to determine dose response at 2× final concentration and added in quadruplicate at 100 μl/well to bring the total volume of each well to 200 μl. The microtiter plate is then incubated at 37° C. 5% CO2 overnight (18-24 hrs) before ^3 H-thymidine is added at a concentration of 0.5 μCi/well in 50 μl culture medium. The plate is incubated again for 4 hrs under the same conditions as above. […] Cells are checked microscopically to determine detachment from surfaces, and plates are then harvested with a cell harvester (PHD, Cambridge Technology, Inc.) Filter papers corresponding to wells are placed in scintillation vials and counted to determine the amount of ^3 H-thymidine incorporated by the cells. […]
Proliferating keratinocytes (NHEK cells purchased from Clonetics, Inc. San Diego, Calif.) in second passage were grown in Keratinocyte Growth Medium (KGM) (Clonetics, Inc.) Cells were trypsinized with 0.025% trypsin (Clonetics), counted with a hemacytometer (Scientific Products), and seeded at a concentration of 2,500 cells/well in a 96 well microtiter plate. […]

P388 murine leukemia = experiment: P388 leukemia tumor assay in mice, survival time; assay type: in vivo, mouse; settings: for % T/C p388 Leukemia: survival time
Text: P388 Leukemia Tumors. Mice were young adult, pathogen-free, BALA/c×DBA/2 F1 (i.e., CD2F1) females purchased from Charles River Laboratories. The tumor line was the P388 murine leukemia, ascites form, obtained from the National Cancer Institute (NCI) Tumor Repository (Frederick, Md.). The tumor was maintained in the serial passage in mice by periodic intraperitoneal (ip) implantation. For this experiment, 10^6 hemacytometer-counted P388 murine leukemia cells were implanted ip into mice on Day 0. The mice were randomized into one untreated control group of 20 and 15 test groups of six mice each. All drug treatment was delivered ip on the basis of the average body weight of each group. […] Body weights were recorded on Days 1, 5, 9, 11, and 18. Deaths were recorded daily. Dying mice were necropsied, and the presence or absence of ascites or splenomegaly was recorded. Drug effectiveness was assessed on the basis of the survival time. Results were expressed as a percentage of the control survival time (Survival Time=T/C×100%; T=test animals; C=control animals). The criterion for effectiveness was determined by: T/C×100≥125 percent.

Melanotic Melanoma B16 = experiment: Melanotic melanoma B16 test in mice, survival time; assay type: in vivo, mouse; settings: 100 mg/kg ip once daily for nine days
Protocol: Melanotic Melanoma B16 Test. The animals used were B6 C3 F1 mice, all of one sex, weighing a minimum of 18 g for males and 17 g for females and all within a 4 g weight range at the start of the test. The test group comprised 9 or 10 mice. The tumor was implanted in each of the test mice by the subcutaneous injection of 0.5 ml of a tumor homogenate prepared by homogenizing a 1 g portion of melanotic melanoma in 10 ml of cold physiological saline. Compound 1a-1 suspended in hydroypropylcellulose was administered intraperitoneally at a dose of 100 mg/kg once daily for nine consecutive days staring on Day 1 relative to the day of tumor inoculation (Day 0). The control mice received injections of hydroxyproplcellulose vehicle only. The mice were weighed and survivors were recorded on a regular basis for sixty days. The median survival times and the ratio of the median survival times for treated (T) to control (C) mice were calculated. The median survival time of the nontreated rumored mice ranged from 15 to 17 days. Drug effectiveness was assessed on the basis of survival time. Results were expressed as a percentage of the control survival time (Survival Time T/C×100%; T=test animals; C=control animals). The criterion for effectiveness was determined by T/C×100≥125 percent.

[5] = system: MCF-7/ADR adriamycin resistant line of MCF-7 cells; experiment: Human tumor growth inhibition, 3H-thymidine incorporation, MCF-7/ADR; assay type: cell-based; settings: NCI/ADR-RES, 3H-thymidine uptake
[6] = system: 8226/ADR adriamycin resistant line of 8226 cells; experiment: Human tumor growth inhibition, 3H-thymidine incorporation, 8226/ADR; assay type: cell-based; settings: 3H-thymidine uptake
[7] = system: 8226/MT Mitoxantrone resistant line of 8226 cells; experiment: Human tumor growth inhibition, 3H-thymidine incorporation, 8226/MT

CCN(CC)CC(O)CNc1ccc(NCC(O)CCl)c2c1C(=O)c1ccccc1C2=O (stereo not drawn) [Compound 1a-1]
pIC50 [1]: 6.60
Resistance Ratio (IC50 MCF-7/ADR to IC50 MCF-7) [2]: 2
pIC50 [3]: 6.00
Resistance Ratio (8226/ADR) [4]: 0.08
pIC50 (NHEK human keratinocytes): 6.80
% T/C p388 Leukemia (P388 murine leukemia; 67 mg/kg, Q1D × 9, ip): 140%
% T/C p388 Leukemia (P388 murine leukemia; 150 mg/kg Q1D × 9, ip): 130%
survival time of mice (in words) (P388 murine leukemia; all dosages and schedules): effectively increased the survival time
% T/C (B16 median survival time) (Melanotic Melanoma B16): 129%
effect on survival time of mice (in words) (Melanotic Melanoma B16): effective for increasing survival time of the mice
pIC50 [5]: 6.30
pIC50 [6]: 7.10
Resistance Ratio (8226/MT) ([7]; 8226/MT vs 8226): 0.24
pIC50 ([7]; Homo sapiens, read-out: IC50 8226/MT): 6.62
ratio of IC50 for 8226 cells to IC50 for 8226/MT cells ([7]; text wording of ratio): 0.24
